Assay results from ChEMBL document CHEMBL5728837, “Non-fused tricyclic compounds” (2021).

Test: YAP Reporter Assay: HEK293T cells stably transfected with 8XTBD luciferase reporter and pRLTK in 384-well plates were treated with the test compounds, starting from 3 μM (final concentration in assay plate), 1:3 dilution, and 10 points in quadruplicates. Post 24-hr incubation with compounds at 37° C. and 5% CO2, cells were lysed and 8XTBD-driven firefly luciferase and control TK-driven renilla luciferase activities were measured using Promega Dual-Luciferase Reporter Assay System.Reagents: The reagents used for this study are: DMEM: Invitrogen #11960077, Dual-Glo Luciferase Assay System: Promega-E2980, Puromycin Dihydrochloride: Invitrogen-A1113803, 384-well plate: PerkinElmer-6007480, L-GLUTAMINE: Invitrogen-25030164, Hygromycin B: Invitrogen-10687010, and Penicillin-Streptomycin: Merk-TMS-AB2-CMedia: The media used for this assay were: Culture Medium: DMEM+1 ug/mL puromycin+200 ug/mL hygromycin (with 10% FBS+1 mM L-glutamine); and Assay Medium: DMEM (with 10% FBS+1 mM L-glutamine+1× P/S).Cell Plating: The appropriate media was warmed at 37° C. by water bath: Culture Medium, Assay Medium, 1*D-PBS, 0.05% trypsin-EDTA. The cells were trypsinized after removing all media, then washed with 1*sterile D-PBS and then with 2 ml 0.05% trypsin-EDTA. The cells were then incubated at RT for one minute. Then 10 ml/75 cm2 flask Assay Medium was added to each flask. Using a 10 ml pipette, the cells were then gently resuspended in the media, until the clumps completely disappeared. The cells were then transferred into 50 ml centrifuge tubes and were centrifuged at 800 rpm for 5 mins. The medium was removed and the cells were resuspended with Assay Medium. An aliquot of cells was used to count the cell density (cells/nil). The cell suspension was then diluted with Assay Medium to a concentration of 6×10^4 cells/ml. 50 ul cells suspension was then plated to 384-well plate (PerkinElmer-6007480), 3×10^3 cells/well and the cells were incubated in an incubator at 37° C., 5% CO2.Compound Treatment: In the afternoon (incubation of the plate with 3-4 hrs), the test compounds were added by Echo, starting from 3 uM (final concentration in the assay plate), 1:3 dilution, 10 points, quadruplicates. The plate was placed at 37° C., 5% CO2 incubator for 24 hrs.Detection: The Dual-Glo Luciferase Reagent was prepared by transferring the contents of one bottle of Dual-Glo Luciferase Buffer to one bottle of Dual-Glo Luciferase Substrate to create the Dual-Glo Luciferase Reagent. Mixing was performed by inversion until the substrate was thoroughly dissolved. After mixing, the reagent was aliquoted into 15 ml tubes. In the afternoon (24 hrs post compound treatment), the DMEM+ medium in the 384 well plates were aspirated by Microplate Washer.Measuring firefly luciferase activity: 20 ul Dual-Glo Luciferase Reagent was added to the 384-well plates. The plates were protected from light to prevent interference with the assay. The plates were shaken for 1 min followed centrifuging plates at 1000 rpm for 30 seconds. After waiting at least 10 minutes, the firefly luminescence was measured by Envision.Measuring renilla luciferase activity: 20 ul Stop-Glo Reagent was added to the 384-well plates. The plates were shaken for lmin and then centrifuged at 1000 rpm for 30 seconds. After waiting at least 10 minutes, the renilla luminescence was measured by Envision.
Settings: not given

Compound	IC50
OCCn1nnc(-c2ccccc2Nc2ccc(C(F)(F)F)cc2)n1	< 100 nM

Same assay, conditions: HEK-293T, 24 h

Compound	IC50
CC(CO)n1nnc(-c2ccccc2Nc2ccc(C(F)(F)F)cc2)n1 (stereo not given)	< 100 nM
NCC(CO)n1nnc(-c2ccccc2Nc2ccc(C(F)(F)F)cc2)n1 (stereo not given)	in the range around 550 nM
OCCn1nnc(-c2cc(Br)ccc2Nc2ccc(C(F)(F)F)cc2)n1	< 100 nM
Cc1nn(CCO)cc1-c1ccccc1Nc1ccc(C(F)(F)F)cc1	in the range around 3000 nM
CO[C@H](C)[C@@H](C)n1nnc(-c2ccccc2Nc2ccc(C(F)(F)F)cc2)n1	in the range around 550 nM
OCCn1nnc(-c2ccccc2Nc2cccc(OC(F)(F)F)c2)n1	in the range around 550 nM
FC(F)(F)c1ccc(Nc2ccccc2-c2nnn(C3CCOC3)n2)cc1 (stereo not given)	< 100 nM
FC(F)(F)OCCn1nnc(-c2ccccc2Nc2ccc(C(F)(F)F)cc2)n1	in the range around 550 nM
FC(F)(F)c1ccc(Nc2ccccc2-c2nnn(C3CCNC3)n2)cc1 (stereo not given)	in the range around 550 nM
Cc1ccc(Nc2ccc(C(F)(F)F)cc2)c(-c2nnn(CCO)n2)c1	< 100 nM
OC1(Cn2nnc(-c3ccccc3Nc3ccc(C(F)(F)F)cc3)n2)CCCNC1 (stereo not given)	in the range around 550 nM
Cn1nnc(-c2ccccc2Nc2ccc(C(F)(F)F)cc2)n1	in the range around 550 nM
CS(=O)(=O)NCCn1nnc(-c2ccccc2Nc2ccc(C(F)(F)F)cc2)n1	in the range around 3000 nM
NC(=O)Cn1nnc(-c2ccccc2Nc2ccc(C(F)(F)F)cc2)n1	< 100 nM
OCCn1nnc(-c2ccccc2Nc2ccc(C(F)(F)F)cc2)n1	< 100 nM
NC(=O)NCCn1nnc(-c2ccccc2Nc2ccc(C(F)(F)F)cc2)n1	< 100 nM
OC1(Cn2nnc(-c3ccccc3Nc3ccc(C(F)(F)F)cc3)n2)CCNCC1	in the range around 3000 nM
OCCn1nnc(-c2cc(OC(F)F)ccc2Nc2ccc(C(F)(F)F)cc2)n1	< 100 nM
OCCn1nnc(-c2ccc(F)cc2Nc2ccc(C(F)(F)F)cc2)n1	< 100 nM
OCCn1nnc(-c2cccc(F)c2Nc2ccc(C(F)(F)F)cc2)n1	< 100 nM
CC(C)C(O)Cn1nnc(-c2ccccc2Nc2ccc(C(F)(F)F)cc2)n1 (stereo not given)	in the range around 550 nM

Compound	IC50
OCC(O)Cn1nnc(-c2ccccc2Nc2ccc(C(F)(F)F)cc2)n1 (stereo not given)	< 100 nM
FCCCn1nnc(-c2ccccc2Nc2ccc(C(F)(F)F)cc2)n1	in the range around 550 nM
CN(C)CCn1nnc(-c2ccccc2Nc2ccc(C(F)(F)F)cc2)n1	in the range around 550 nM
CCC(O)Cn1nnc(-c2ccccc2Nc2ccc(C(F)(F)F)cc2)n1 (stereo not given)	< 100 nM
Cc1ccc(-c2nnn(CCO)n2)c(Nc2ccc(C(F)(F)F)cc2)c1	< 100 nM
FC(F)(F)c1ccc(Nc2ccccc2-c2nnn(C3COC3)n2)cc1	< 100 nM
CCc1ccc(Nc2ccc(C(F)(F)F)cc2)c(-c2nnn(CCO)n2)c1	< 100 nM
O=C(O)Cn1cc(-c2ccccc2Nc2ccc(C(F)(F)F)cc2)cn1	in the range around 550 nM
CN(C)CCCn1nnc(-c2ccccc2Nc2ccc(C(F)(F)F)cc2)n1	in the range around 3000 nM
OCCn1nnc(-c2ccccc2Nc2ccc(SC(F)F)cc2)n1	in the range around 550 nM
FC(F)(F)c1ccc(Nc2ccccc2-c2nnn(Cc3ccccn3)n2)cc1	in the range around 550 nM
COc1ccc(Nc2ccc(C(F)(F)F)cc2)c(-c2nnn(CCO)n2)c1	< 100 nM
FC(F)(F)c1ccc(Nc2ccccc2-c2nnn(-c3ccccn3)n2)cc1	in the range around 550 nM
O=C(Cn1nnc(-c2ccccc2Nc2ccc(C(F)(F)F)cc2)n1)c1ccccc1	in the range around 3000 nM
FC(F)(F)c1ccc(Nc2ccccc2-c2nnn(Cc3cccnc3)n2)cc1	in the range around 550 nM
OCCn1nnc(-c2ccccc2Nc2cccc(F)c2)n1	in the range around 550 nM
O[C@H]1CNC[C@@H]1n1nnc(-c2ccccc2Nc2ccc(C(F)(F)F)cc2)n1	in the range around 550 nM
OCCn1nnc(-c2cc(Cl)ccc2Nc2ccc(C(F)(F)F)cc2)n1	< 100 nM
CCOC(=O)C(C)n1nnc(-c2ccccc2Nc2ccc(C(F)(F)F)cc2)n1 (stereo not given)	< 100 nM
OCCn1nnc(-c2ccccc2Nc2cccc(Cl)c2)n1	in the range around 3000 nM
OCCn1nnc(-c2c(F)cccc2Nc2ccc(C(F)(F)F)cc2)n1	< 100 nM

Compound	IC50
CCOC(=O)Cn1nnc(-c2ccccc2Nc2ccc(F)cc2)n1	in the range around 550 nM
CO[C@@H](C)[C@@H](C)n1nnc(-c2ccccc2Nc2ccc(C(F)(F)F)cc2)n1	< 100 nM
OC1(Cn2nnc(-c3ccccc3Nc3ccc(C(F)(F)F)cc3)n2)CCCCC1	in the range around 550 nM
OCCCn1nnc(-c2ccccc2Nc2cccc(C(F)(F)F)c2)n1	in the range around 550 nM
FC(F)(F)c1ccc(Nc2ccccc2-c2nnn(Cc3ccncc3)n2)cc1	in the range around 550 nM
OC(Cn1nnc(-c2ccccc2Nc2ccc(C(F)(F)F)cc2)n1)c1ccccc1 (stereo not given)	in the range around 3000 nM
O=C1NCC(Cn2nnc(-c3ccccc3Nc3ccc(C(F)(F)F)cc3)n2)O1 (stereo not given)	in the range around 550 nM
OCCn1nnc(-c2cccnc2Nc2ccc(OC(F)(F)F)cc2)n1	in the range around 550 nM
O=C(Cn1nnc(-c2ccccc2Nc2ccc(C(F)(F)F)cc2)n1)C1CC1	in the range around 550 nM
COC1CCCC1n1nnc(-c2ccccc2Nc2ccc(C(F)(F)F)cc2)n1 (stereo not given)	in the range around 550 nM
CC(CN)n1nnc(-c2ccccc2Nc2ccc(C(F)(F)F)cc2)n1 (stereo not given)	< 100 nM
CC(=O)N1CCCC(O)(Cn2nnc(-c3ccccc3Nc3ccc(C(F)(F)F)cc3)n2)C1 (stereo not given)	in the range around 550 nM
O=C1NCC(Cn2nnc(-c3ccccc3Nc3ccc(C(F)(F)F)cc3)n2)N1 (stereo not given)	in the range around 550 nM
NS(=O)(=O)NCCn1nnc(-c2ccccc2Nc2ccc(C(F)(F)F)cc2)n1	in the range around 3000 nM
FC(F)(F)Oc1ccc(Nc2ccccc2-c2nnn(Cc3ccccn3)n2)cc1	in the range around 3000 nM
CCc1ccc(Nc2ccccc2-c2nnn(CCO)n2)cc1	in the range around 550 nM
CCOC(=O)Cn1cc(-c2ccccc2Nc2cccc(C(F)(F)F)c2)cn1	in the range around 550 nM
OCCn1nnc(-c2cc(C(F)F)ccc2Nc2ccc(C(F)(F)F)cc2)n1	in the range around 550 nM
C[C@H](O)[C@@H](C)n1nnc(-c2ccccc2Nc2ccc(C(F)(F)F)cc2)n1	< 100 nM
CCOC(=O)Cn1cc(-c2ccccc2Nc2ccc(C(F)(F)F)cc2)cn1	< 100 nM
O=C1N[C@H](Cn2nnc(-c3ccccc3Nc3ccc(C(F)(F)F)cc3)n2)CO1	in the range around 550 nM

Compound	IC50
OCCn1nnc(-c2ccccc2Nc2ccccc2F)n1	in the range around 3000 nM
CC(=O)OC1(CN2N=C(c3ccccc3Nc3ccc(C(F)(F)F)cc3)NN2)CN(C(C)=O)C1	in the range around 3000 nM
FC(F)(F)c1ccc(Nc2ccccc2-c2nnn(C3CCOCC3)n2)cc1	in the range around 550 nM
OC1(Cn2nnc(-c3ccccc3Nc3ccc(C(F)(F)F)cc3)n2)CNC1	in the range around 550 nM
CNCCCn1nnc(-c2ccccc2Nc2ccc(C(F)(F)F)cc2)n1	in the range around 3000 nM
OC1(Cn2nnc(-c3ccccc3Nc3ccc(C(F)(F)F)cc3)n2)CC1	< 100 nM
NC(=O)OCCn1nnc(-c2ccccc2Nc2ccc(C(F)(F)F)cc2)n1	< 100 nM
OCCn1nnc(-c2ccccc2Nc2ccc(F)cc2)n1	in the range around 550 nM
OC(Cn1nnc(-c2ccccc2Nc2ccc(C(F)(F)F)cc2)n1)C(F)(F)F (stereo not given)	< 100 nM
OCCn1nnc(-c2ccccc2Nc2ccc(C(F)(F)F)c(Cl)c2)n1	< 100 nM
OCC(CO)n1nnc(-c2ccccc2Nc2ccc(C(F)(F)F)cc2)n1	< 100 nM
CC(CO)c1nc(-c2ccccc2Nc2ccc(C(F)(F)F)cc2)nn1C (stereo not given)	in the range around 3000 nM
FC(F)(F)c1ccc(Nc2ccccc2-c2nnn(C3CNC3)n2)cc1	in the range around 3000 nM
OC1(Cn2nnc(-c3ccccc3Nc3ccc(C(F)(F)F)cc3)n2)CCOCC1	in the range around 550 nM
CCN(CC)C(=O)Cn1nnc(-c2ccccc2Nc2ccc(C(F)(F)F)cc2)n1	in the range around 3000 nM
OCCCn1nnc(-c2ccccc2Nc2ccc(C(F)(F)F)cc2)n1	< 100 nM
CCOC(=O)Cn1cc(-c2ccccc2Nc2cccc(C(F)(F)F)c2)nn1	in the range around 3000 nM
FC(F)(F)c1ccc(Nc2ccccc2-c2nnn(C3COCOC3)n2)cc1	< 100 nM
COc1ccc(-c2nnn(CCO)n2)c(Nc2ccc(C(F)(F)F)cc2)c1	< 100 nM
O=C(Cn1nnc(-c2ccccc2Nc2ccc(C(F)(F)F)cc2)n1)NO	in the range around 550 nM
FC(F)(F)c1ccc(Nc2ccccc2-c2nnn(C3CCCOC3)n2)cc1 (stereo not given)	in the range around 550 nM
